{"source": "patent US9426996B2", "about": "“Use of benzoxaboroles as volatile antimicrobial agents on meats, plants, or plant parts” (AgroFresh Inc., priority 2013, dated 2016)", "key": {"Penicillium digitatum [1]": {"tested_on": "Penicillium digitatum", "test": "in vivo volatile bioassay using orange fruit (Compound A)", "conditions": "oranges", "experimental": "In order to assess the in vivo activity of volatile antimicrobial Compound A in fruit, a volatile bioassay is developed using orange fruit. Two oranges are placed inside a PET clamshell. Three fresh wounds per orange are inoculated with 30 μL of 1×10^6 per mL Penicillium digitatum spore suspension. The clamshells are placed inside a 10.8-cup SnapWare airtight container (Model #109842). A 42.5 mm Whatman #1 filter disk (Cat. No. 1001-042) is placed on a watch glass. Compound A is dissolved in acetone and added to the disks in a dose dependent manner to produce a final headspace concentration of 2, 10, or 50 mg/L. The acetone is permitted to evaporate for five minutes. The containers are then closed with the lids and placed for three days at 21° C. After storage, fruits are evaluated for disease incidence (mm diameter of the rot) and pathogen sporulation (mm diameter) on the surface of the fruits for an additional two days at 21° C., with results summarized in Table 18."}, "Botrytis cinerea": {"tested_on": "Botrytis cinerea", "test": "combination treatment with 1-MCP on white roses", "assay_type": "in vivo", "conditions": "three day volatile treatment at 21° C.", "experimental": "To evaluate a combination treatment of Compound A with 1-methylcyclopropene (1-MCP), an in vivo experiment is performed on white roses.\nFive white roses are placed in an 800 mL jar containing 200 mL of a common commercial flower preservative. Three jars are then placed in a 117 L Rubbermaid storage box (Cat #2244). Two small fans are placed in opposite ends of the container to assist with the distribution of the two volatiles. A 500 parts per billion (ppb) volume per volume (v/v) 1-MCP treatment is applied (AgroFresh, Springhouse, Pa.) for 24 hours at 21° C. After the 1-MCP treatment is completed, the containers are vented, and Compound A powder is applied in a dose dependent manner to achieve a final headspace concentration of 0.2, 0.04, or 0.008 mg/L with a sublimation device (copper tube heated to 200° C. with fan flow at 0.5 L/min), with the end of the tube penetrating through a ½ inch side port in the container that is sealed immediately after the application. The flowers are incubated for three days at 21° C. After treatment, the flowers are evaluated for an additional seven days at 21° C. for disease incidence and severity of the flower petals."}, "Alternaria alternata": {"tested_on": "Alternaria alternata", "test": "combination treatment with 1-MCP on broccoli", "assay_type": "in vivo", "set-up": "scale not given here", "conditions": "21° C.", "experimental": "To evaluate a combination treatment of Compound A with 1-methylcyclopropene (1-MCP), an in vivo experiment is performed on broccoli.\nBroccoli flowers are inoculated with 1×10^6 spores/mL of Alternaria alternata and then placed in a 117 L Rubbermaid storage box (Cat #2244) with two small fans placed in opposite ends of the container. A 500 ppb v/v 1-MCP treatment is applied (AgroFresh, Springhouse, Pa.) for 24 hours at 1° C. After completion of the 1-MCP treatment, broccoli florets are removed and placed in a 10.8-cup SnapWare airtight container (Model #109842). Compound A powder is applied in a dose dependent manner to achieve a final headspace concentration of 2 or 0.4 mg/L with a sublimation device (copper tube heated to 200° C. with fan flow at 0.5 L/min), with the end of the tube penetrating through a ½ inch side port in the container that is sealed immediately after the application. The florets are incubated for five days at 10° C. or three days at 21° C., then evaluated for an additional five days at 21° C. for disease incidence and severity."}, "Penicillium digitatum [2]": {"tested_on": "Penicillium digitatum", "test": "in vivo sublimation bioassay on fruit, 1 mg/L (Example 31)", "experimental": "To assess the in vivo activity of volatile antimicrobial Compounds A and B (FIG. 1) in fruit, a volatile bioassay is developed using apple, pear, orange, strawberry, grape and blueberry.\nTwo apples, 2 oranges, 2 pears, 8 strawberries, 16 grapes or 30 blueberries (per replicate, in duplicate) are placed in a clamshell with the stem end facing up for all fruits except for strawberry (stem end facing downwards). A fresh wound is inoculated with 20 μL 1×10^6 per mL Penicillium expansum spore suspension (apple and pear), 20 μL 1×10^6 per mL Penicillium digitatum spore suspension (orange), and 20 μL (strawberry and grape) or 10 μL (blueberry) of 1×10^6 per mL Botrytis cinerea spore suspension. The clamshells are placed inside a 117 L Rubbermaid storage box (Cat #2244) with lids closed. […] After treatment, fruits are held for an additional three days at 21° C., then evaluated for disease incidence (mm diameter of browning or water-soaked lesions) and pathogen sporulation (mm diameter) for apple, pear and orange, as well as Botrytis cinerea disease incidence (%) and severity (0 to 4) for strawberry, grape and blueberry, with results summarized in Table 30."}, "Penicillium digitatum [3]": {"tested_on": "Penicillium digitatum", "test": "in vivo contact drench assay on oranges", "experimental": "In order to assess the activity of Compound A (FIG. 1) as a contact drench fungicide, an in vivo assay is developed. […] Compound A is dissolved in water to achieve a final treatment solution concentration of 250, 50, or 10 mg/L. The fruit is dipped in Compound A solution for 1 minute and allowed to dry for 1 hour. Fruit wounds are then inoculated with 30 μL of 1×10^6 per mL Penicillium expansum spore suspension (apple) or Penicillium digitatum spore suspension (orange). Clamshells are then placed in a 10.8-cup SnapWare airtight container (Model #109842) and incubated for 3 days at 21° C."}, "[4]": {"conditions": "Orange, 1 mg/L sublimed, three day treatment plus three days at 21° C."}}}
{"smiles": "OB1OCc2cc(F)ccc21", "note": "[Compound A]", "values": [{"measurement": "Sporulation (mm)", "setting": "Penicillium digitatum [1]; 2 mg/L, Day 0", "value": 0, "unit": "mm"}, {"measurement": "Water soaked lesions (mm)", "setting": "Penicillium digitatum [1]; 2 mg/L, Day 0", "value": 0, "unit": "mm"}, {"measurement": "Sporulation (mm)", "setting": "Penicillium digitatum [1]; 2 mg/L, Day 1", "value": 0.4, "unit": "mm"}, {"measurement": "Water soaked lesions (mm)", "setting": "Penicillium digitatum [1]; 2 mg/L, Day 1", "value": 0, "unit": "mm"}, {"measurement": "Sporulation (mm)", "setting": "Penicillium digitatum [1]; 2 mg/L, Day 2", "value": 2.7, "unit": "mm"}, {"measurement": "Water soaked lesions (mm)", "setting": "Penicillium digitatum [1]; 2 mg/L, Day 2", "value": 13.4, "unit": "mm"}, {"measurement": "Sporulation (mm)", "setting": "Penicillium digitatum [1]; 10 mg/L, Day 0", "value": 0.5, "unit": "mm"}, {"measurement": "Water soaked lesions (mm)", "setting": "Penicillium digitatum [1]; 10 mg/L, Day 0", "value": 0, "unit": "mm"}, {"measurement": "Sporulation (mm)", "setting": "Penicillium digitatum [1]; 10 mg/L, Day 1", "value": 0.4, "unit": "mm"}, {"measurement": "Water soaked lesions (mm)", "setting": "Penicillium digitatum [1]; 10 mg/L, Day 1", "value": 0, "unit": "mm"}, {"measurement": "Sporulation (mm)", "setting": "Penicillium digitatum [1]; 10 mg/L, Day 2", "value": 2.5, "unit": "mm"}, {"measurement": "Water soaked lesions (mm)", "setting": "Penicillium digitatum [1]; 10 mg/L, Day 2", "value": 9, "unit": "mm"}, {"measurement": "Sporulation (mm)", "setting": "Penicillium digitatum [1]; 50 mg/L, Day 0", "value": 0, "unit": "mm"}, {"measurement": "Water soaked lesions (mm)", "setting": "Penicillium digitatum [1]; 50 mg/L, Day 0", "value": 0, "unit": "mm"}, {"measurement": "Sporulation (mm)", "setting": "Penicillium digitatum [1]; 50 mg/L, Day 1", "value": 0, "unit": "mm"}, {"measurement": "Water soaked lesions (mm)", "setting": "Penicillium digitatum [1]; 50 mg/L, Day 1", "value": 0, "unit": "mm"}, {"measurement": "Sporulation (mm)", "setting": "Penicillium digitatum [1]; 50 mg/L, Day 2", "value": 1.2, "unit": "mm"}, {"measurement": "Water soaked lesions (mm)", "setting": "Penicillium digitatum [1]; 50 mg/L, Day 2", "value": 5, "unit": "mm"}, {"measurement": "Incidence (%)", "setting": "Botrytis cinerea; 0.008 mg/L", "value": 20.0, "unit": "%"}, {"measurement": "Severity (0-4)", "setting": "Botrytis cinerea; 0.008 mg/L", "value": 0.2}, {"measurement": "Incidence (%)", "setting": "Botrytis cinerea; 0.04 mg/L", "value": 20.0, "unit": "%"}, {"measurement": "Severity (0-4)", "setting": "Botrytis cinerea; 0.04 mg/L", "value": 0.03}, {"measurement": "Incidence (%)", "setting": "Botrytis cinerea; 0.2 mg/L", "value": 0.0, "unit": "%"}, {"measurement": "Severity (0-4)", "setting": "Botrytis cinerea; 0.2 mg/L", "value": 0.0}, {"measurement": "Color Score", "setting": "Alternaria alternata; 0.4 mg/L", "value": 1.32}, {"measurement": "Severity", "setting": "Alternaria alternata; 0.4 mg/L", "value": 0.29}, {"measurement": "Color Score", "setting": "Alternaria alternata; 2 mg/L", "value": 1.89}, {"measurement": "Severity", "setting": "Alternaria alternata; 2 mg/L", "value": 0.07}, {"measurement": "in vivo antimicrobial control of P. digitatum", "setting": "Penicillium digitatum [2]; 1 mg/L, volatile fungicide", "value": 100, "unit": "%"}, {"measurement": "Sporulation (mm)", "setting": "Penicillium digitatum [2]; [4]", "value": 0.0, "unit": "mm"}, {"measurement": "Water soaked lesion", "setting": "Penicillium digitatum [2]; [4]", "value": 0.0, "unit": "mm"}, {"measurement": "Sporulation (mm)", "setting": "Penicillium digitatum [3]; dip 10 mg/L", "value": 16.6, "unit": "mm"}, {"measurement": "Water soaked (mm)", "setting": "Penicillium digitatum [3]; dip 10 mg/L", "value": 27.5, "unit": "mm"}, {"measurement": "Sporulation (mm)", "setting": "Penicillium digitatum [3]; dip 50 mg/L", "value": 12.0, "unit": "mm"}, {"measurement": "Water soaked (mm)", "setting": "Penicillium digitatum [3]; dip 50 mg/L", "value": 18.8, "unit": "mm"}, {"measurement": "Sporulation (mm)", "setting": "Penicillium digitatum [3]; dip 250 mg/L", "value": 0.4, "unit": "mm"}, {"measurement": "Water soaked (mm)", "setting": "Penicillium digitatum [3]; dip 250 mg/L", "value": 1.7, "unit": "mm"}]}
